Measured values published in patent US20080233561A1, “Method for Measuring Cytopathic Effect Due to Viral Infection in Cells Using Electric Cell-Substrate Impedance Sensing” (UNIVERSITY OF LOUISVILLE RESEARCH FOUNDATION, INC., priority 2005, published 2008).

Tested on: PR8 influenza A virus (influenza/A/PR/8/34 virus)
Format: cell-based

Cl.N [NH4Cl, ammonium chloride]
CPE in influenza-infected cells, observed with ECIS: Inhibition of CPE in influenza-infected cells
